Literature values in patent US6800435B2, “Insect sodium channels from insecticide-susceptible and insecticide-resistant house flies” (Cornell Research Foundation, Inc., priority 1996, dated 2004).

Test system: resistant (538ge) house fly strain
Details: kdr trait, adult flies, Sawicki 1978

In the case of `Clc1ccc(C(c2ccc(Cl)cc2)C(Cl)(Cl)Cl)cc1` [DDT, 1,1-bis-(4-chlorophenyl)-2,2,2-trichloroethane], the “doses required to kill approximately 50% of the treated individuals” value is listed as “approximately 0.5 μg per adult fly”.
